From ChEMBL document CHEMBL1909294, “Translating clinical findings into knowledge in drug safety evaluation--drug induced liver injury prediction system (DILIps)” (PLoS Comput Biol, 2011)

Assays:
Hepatotoxicity [1] = tested on: Hepatotoxicity;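 for HepSE cholecystitis: Cholecystitis-related hepatic side effect score drawn from the DILIps (drug-induced liver injury prediction) training data set; call rule not given here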;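 for HepSE elevated liver function tests: hepatic side effect score for raised liver function tests, as recorded in the DILIps training set used for predicting drug-induced liver injury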; for HepSE hepatic failure: call rule not given here;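 for HepSE hepatic necrosis: score of hepatic side effects for hepatic necrosis, drawn from the training data of DILIps, a prediction system for drug-induced liver injury; call rule not given here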;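 for HepSE jaundice: Jaundice-related hepatic side-effect score drawn from the training data of the DILIps (drug-induced liver injury prediction system); call rule not given here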;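 for HepSE liver function tests abnormal: hepatic side effect score taken from the DILIps (drug-induced liver injury prediction system) training data, here covering abnormal liver function test findings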
Hepatotoxicity [2] = tested on: Hepatotoxicity; remark: listed apart in the source;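 for HepSE cholecystitis: Cholecystitis-related hepatic side effect score drawn from the DILIps (drug-induced liver injury prediction) training data set; call rule not given here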;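 for HepSE elevated liver function tests: hepatic side effect score for raised liver function tests, as recorded in the DILIps training set used for predicting drug-induced liver injury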; for HepSE hepatic failure: call rule not given here;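 for HepSE hepatic necrosis: score of hepatic side effects for hepatic necrosis, drawn from the training data of DILIps, a prediction system for drug-induced liver injury; call rule not given here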;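 for HepSE jaundice: Jaundice-related hepatic side-effect score drawn from the training data of the DILIps (drug-induced liver injury prediction system); call rule not given here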;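 for HepSE liver function tests abnormal: hepatic side effect score taken from the DILIps (drug-induced liver injury prediction system) training data, here covering abnormal liver function test findings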
Hepatotoxicity [3] = tested on: Hepatotoxicity; remark: listed apart in the source;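 for HepSE cholecystitis: Cholecystitis-related hepatic side effect score drawn from the DILIps (drug-induced liver injury prediction) training data set; call rule not given here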;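 for HepSE elevated liver function tests: hepatic side effect score for raised liver function tests, as recorded in the DILIps training set used for predicting drug-induced liver injury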; for HepSE hepatic failure: call rule not given here;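 for HepSE hepatic necrosis: score of hepatic side effects for hepatic necrosis, drawn from the training data of DILIps, a prediction system for drug-induced liver injury; call rule not given here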;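 for HepSE jaundice: Jaundice-related hepatic side-effect score drawn from the training data of the DILIps (drug-induced liver injury prediction system); call rule not given here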;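 for HepSE liver function tests abnormal: hepatic side effect score taken from the DILIps (drug-induced liver injury prediction system) training data, here covering abnormal liver function test findings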
Hepatotoxicity [4] = tested on: Hepatotoxicity; remark: listed apart in the source;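 for HepSE cholecystitis: Cholecystitis-related hepatic side effect score drawn from the DILIps (drug-induced liver injury prediction) training data set; call rule not given here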;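 for HepSE elevated liver function tests: hepatic side effect score for raised liver function tests, as recorded in the DILIps training set used for predicting drug-induced liver injury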; for HepSE hepatic failure: call rule not given here;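 for HepSE hepatic necrosis: score of hepatic side effects for hepatic necrosis, drawn from the training data of DILIps, a prediction system for drug-induced liver injury; call rule not given here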;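 for HepSE jaundice: Jaundice-related hepatic side-effect score drawn from the training data of the DILIps (drug-induced liver injury prediction system); call rule not given here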;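 for HepSE liver function tests abnormal: hepatic side effect score taken from the DILIps (drug-induced liver injury prediction system) training data, here covering abnormal liver function test findings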
Hepatotoxicity [5] = tested on: Hepatotoxicity; remark: listed apart in the source; for HepSE hepatic failure: call rule not given here
Hepatotoxicity [6] = tested on: Hepatotoxicity; remark: listed apart in the source
Hepatotoxicity [7] = tested on: Hepatotoxicity; remark: listed apart in the source
Hepatotoxicity [8] = tested on: Hepatotoxicity; remark: listed apart in the source
Hepatotoxicity [9] = tested on: Hepatotoxicity; remark: listed apart in the source
Hepatotoxicity [10] = tested on: Hepatotoxicity; remark: listed apart in the source
Hepatotoxicity [11] = tested on: Hepatotoxicity; remark: listed apart in the source
Hepatotoxicity [12] = tested on: Hepatotoxicity; remark: listed apart in the source
Hepatotoxicity [13] = tested on: Hepatotoxicity; remark: listed apart in the source
Hepatotoxicity [14] = tested on: Hepatotoxicity; remark: listed apart in the source

SMILES	HepSE_hepatic necrosis (Hepatotoxicity [1])	HepSE_liver function tests abnormal (Hepatotoxicity [2])	HepSE_jaundice (Hepatotoxicity [3])	HepSE_cholecystitis (Hepatotoxicity [4])	HepSE_elevated liver function tests (Hepatotoxicity [5])	HepSE_hepatitis (Hepatotoxicity [6])	HepSE_hepatic failure (Hepatotoxicity [7])	HepSE_cholelithiasis (Hepatotoxicity [8])	HepSE_cirrhosis (Hepatotoxicity [9])	HepSE_bilirubinemia (Hepatotoxicity [10])	HepSE_liver disease (Hepatotoxicity [11])	HepSE_Combined Scores (Hepatotoxicity [12])	HepSE_liver fatty (Hepatotoxicity [13])	HepSE_hepatomegaly (Hepatotoxicity [14])	other results
CN(C)S(=O)(=O)c1ccc2c(c1)N(CCCN1CCC(CCO)CC1)c1ccccc1S2 [PIPOTIAZINE]	0	0	1	0	0	0	0	0	0	0	0	1	0	0	
NC(=O)CC[C@H](N)C(=O)O [GLUTAMINE]	0	0	0	0	0	0	0	0	0	0	0	0	0	0	
O=c1[nH]cnc2c1ncn2[C@H]1CC[C@@H](CO)O1 [DIDANOSINE]	0	0	0	0	0	1	1	0	0	0	0	4	1	1	
CC(=O)CCCCn1c(=O)c2c(ncn2C)n(C)c1=O [PENTOXIFYLLINE]	0	0	1	1	0	1	0	0	0	0	0	3	0	0	
CCOc1ccccc1OCCN[C@H](C)Cc1ccc(OC)c(S(N)(=O)=O)c1 [TAMSULOSIN]	0	0	0	0	0	0	0	0	0	0	0	0	0	0	
O=P(O)(O)C(Sc1ccc(Cl)cc1)P(=O)(O)O [TILUDRONIC ACID]	0	0	0	0	0	0	0	0	0	0	0	0	0	0	
CO/N=C1\CN(c2nc3c(cc2F)c(=O)c(C(=O)O)cn3C2CC2)CC1CN (configuration not stated) [GEMIFLOXACIN]	0	0	1	0	0	1	0	0	0	1	0	3	0	0	
COCCCOc1cc(C[C@@H](C[C@H](N)[C@@H](O)C[C@H](C(=O)NCC(C)(C)C(N)=O)C(C)C)C(C)C)ccc1OC	0	0	0	0	0	0	0	0	0	0	0	0	0	0	
C=C1/C(=C\C=C2/CCC[C@]3(C)[C@@H]([C@H](C)/C=C/[C@@H](O)C4CC4)CC[C@@H]23)C[C@@H](O)C[C@@H]1O [CALCIPOTRIENE]	0	0	0	0	0	0	0	0	0	0	0	0	0	0	
CC(C[N+](C)(C)C)OC(N)=O (configuration not stated) [BETHANECHOL]															HepSE_hepatic necrosis (Hepatotoxicity [1]; Liver): 0; HepSE_liver function tests abnormal (Hepatotoxicity [2]; Liver): 0; HepSE_jaundice (Hepatotoxicity [3]; Liver): 0; HepSE_cholecystitis (Hepatotoxicity [4]; Liver): 0; HepSE_elevated liver function tests (Hepatotoxicity [5]; Liver): 0; HepSE_hepatitis (Hepatotoxicity [6]; Liver): 0; HepSE_hepatic failure (Hepatotoxicity [7]; Liver): 0; HepSE_cholelithiasis (Hepatotoxicity [8]; Liver): 0; HepSE_cirrhosis (Hepatotoxicity [9]; Liver): 0; HepSE_bilirubinemia (Hepatotoxicity [10]; Liver): 0; HepSE_liver disease (Hepatotoxicity [11]; Liver): 0; HepSE_Combined Scores (Hepatotoxicity [12]; Liver): 0; HepSE_liver fatty (Hepatotoxicity [13]; Liver): 0; HepSE_hepatomegaly (Hepatotoxicity [14]; Liver): 0
CNC(=O)c1c(I)c(NC(C)=O)c(I)c(C(=O)[O-])c1I.[Na+] [IOTHALAMATE SODIUM]	0	0	0	0	0	0	0	0	0	0	0	0	0	0	
CCc1c2c(nc3ccc(OC(=O)N4CCC(N5CCCCC5)CC4)cc13)-c1cc3c(c(=O)n1C2)COC(=O)[C@]3(O)CC [IRINOTECAN]	0	0	1	0	0	0	0	0	0	0	0	2	0	1	
N[C@@H]1C[C@H]1c1ccccc1.N[C@H]1C[C@@H]1c1ccccc1 [TRANYLCYPROMINE]															HepSE_hepatic necrosis (Hepatotoxicity [1]; Liver): 0; HepSE_liver function tests abnormal (Hepatotoxicity [2]; Liver): 0; HepSE_jaundice (Hepatotoxicity [3]; Liver): 0; HepSE_cholecystitis (Hepatotoxicity [4]; Liver): 0; HepSE_elevated liver function tests (Hepatotoxicity [5]; Liver): 0; HepSE_hepatitis (Hepatotoxicity [6]; Liver): 1; HepSE_hepatic failure (Hepatotoxicity [7]; Liver): 0; HepSE_cholelithiasis (Hepatotoxicity [8]; Liver): 0; HepSE_cirrhosis (Hepatotoxicity [9]; Liver): 0; HepSE_bilirubinemia (Hepatotoxicity [10]; Liver): 0; HepSE_liver disease (Hepatotoxicity [11]; Liver): 0; HepSE_Combined Scores (Hepatotoxicity [12]; Liver): 1; HepSE_liver fatty (Hepatotoxicity [13]; Liver): 0; HepSE_hepatomegaly (Hepatotoxicity [14]; Liver): 0
